Assay results as given in ChEMBL document CHEMBL1201862, “PubChem BioAssay data set” (2004).
One block for each molecule: values may come before it. Active and inactive are the calls of the source.

Legend:
[1] = A549 cell cytotoxicity, dose response, cytotoxicity control, plate reader, cherry-pick, antagonist series (AID 743412); assay type: functional, cell-based
[2] = blockade of melanocortin 4 receptor signaling – cell-based, plate reader, cherry pick, counter-screen for LGR2 antagonist project, dose response (AID 743444); assay type: functional;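 further: transfected HEK 293 cells stimulated with alpha-MSH peptide; potency of inhibitors of the alpha-MSH evoked signal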
[3] = Luminescence-based cell-based high throughput dose response assay to identify activators of the DAF-12 from the parasite S. stercoralis (ssDAF-12).; assay type: functional
BJ = assay: cells; assay type: functional, cell-based; conditions: Homo sapiens
[4] = target: Glutathione-S-transferase (Schistosoma japonicum, UniProt Q26513); assay: GST-antibody interaction or FRET quenching – biochemical, TR-FRET, artefact control for Vif-APOBEC3G degradation inhibitor project, dose response (AID 1117362); assay type: functional
Estrogen receptor beta = Estrogen receptor beta (Homo sapiens, UniProt Q92731); assay: blockers of SRC-3 recruitment to ERβ – biochemical, ELISA, streptavidin-HRP readout, orthogonal assay, confirmation (AID 1060)
Beta-arrestin-1 = Beta-arrestin-1 (Homo sapiens, UniProt P49407); assay: beta-arrestin/AP2 interaction blockers, potency – biochemical, cherry pick 1, beta2-adaptin appendage, flow cytometry, dose response (AID 588783); assay type: functional
[5] = target: T1, C-C chemokine receptor type 6 (Homo sapiens, UniProt P51684); assay: antagonism of CCR6 beta-arrestin recruitment – cell-based, luminescent beta-arrestin readout, dose response (AID 504728); assay type: functional
T1 sequence (P51684 whole entry): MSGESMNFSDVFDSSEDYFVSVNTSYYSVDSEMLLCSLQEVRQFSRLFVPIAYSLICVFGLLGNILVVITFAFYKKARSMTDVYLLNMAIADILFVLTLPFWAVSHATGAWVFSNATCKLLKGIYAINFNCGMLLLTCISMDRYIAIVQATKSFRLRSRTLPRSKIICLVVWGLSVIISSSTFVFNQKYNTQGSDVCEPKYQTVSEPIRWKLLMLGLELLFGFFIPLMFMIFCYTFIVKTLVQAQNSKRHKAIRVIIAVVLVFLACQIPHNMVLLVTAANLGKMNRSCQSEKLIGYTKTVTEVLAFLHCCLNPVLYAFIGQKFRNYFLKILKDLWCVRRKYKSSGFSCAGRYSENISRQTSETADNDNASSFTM

HEK293 [6] = assay: NOD2 signaling inhibitors in MDP-stimulated cells, cell-based, uHTS, luminescence (AID 2001); assay type: functional; conditions: Homo sapiens
HEK293 [7] = assay: cells; assay type: functional, cell-based; conditions: Homo sapiens
[8] = target: MAP kinase-activated protein kinase 3 (Homo sapiens, UniProt Q16644); assay type: functional;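 further: value comes from a kinome-wide profiling panel in which MAPKAPK3 is one of the panel members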
[9] = target: Serine/threonine-protein kinase Nek2 (Homo sapiens, UniProt P51955); assay type: functional
[10] = target: Serine/threonine-protein kinase PLK1 (Homo sapiens, UniProt P53350); assay type: functional;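 further: PLK1 measured as one member of a kinome-wide profiling panel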
[11] = target: Dual specificity protein kinase CLK4 (Homo sapiens, UniProt Q9HAZ1); assay type: functional
[12] = target: BDNF/NT-3 growth factors receptor (Homo sapiens, UniProt Q16620); assay type: functional;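 further: NTRK2 measured as one member of a broad kinome-wide kinase profiling panel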
[13] = target: Rho-associated protein kinase 2 (Homo sapiens, UniProt O75116); assay type: functional
[14] = target: Glycogen synthase kinase-3 beta (Homo sapiens, UniProt P49841); assay type: functional;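 further: value comes from a broad kinome profiling panel, with GSK3B as the panel member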
[15] = target: Ribosomal protein S6 kinase alpha-5 (Homo sapiens, UniProt O75582); assay type: functional
[16] = target: STE20-like serine/threonine-protein kinase (Homo sapiens, UniProt Q9H2G2); assay type: functional
[17] = target: High affinity nerve growth factor receptor (Homo sapiens, UniProt P04629); assay type: functional;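 further: NTRK1 tested as one member of a kinome-wide profiling panel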
[18] = target: Protein kinase C delta type (Homo sapiens, UniProt Q05655); assay type: functional
[19] = target: Serine/threonine-protein kinase Chk1 (Homo sapiens, UniProt O14757); assay type: functional;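 further: measured as one member of a kinome-wide kinase profiling panel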
[20] = target: MAP kinase-activated protein kinase 5 (Homo sapiens, UniProt Q8IW41); assay type: functional;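 further: measured as one member of a kinome panel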
[21] = target: Hepatocyte growth factor receptor (Homo sapiens, UniProt P08581); assay type: functional;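 further: kinase panel profiling across the kinome, with MET as the panel member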
[22] = target: Tyrosine-protein kinase Fyn (Homo sapiens, UniProt P06241); assay type: functional
[23] = target: Serine/threonine-protein kinase PAK 4 (Homo sapiens, UniProt O96013); assay type: functional;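 further: value obtained within a kinome profiling panel in which PAK4 was one of the panel members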
[24] = target: Ribosomal protein S6 kinase beta-1 (Homo sapiens, UniProt P23443); assay type: functional;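 further: measured as one member of a kinome-wide profiling panel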
[25] = target: Fibroblast growth factor receptor 1 (Homo sapiens, UniProt P11362); assay type: functional
[26] = target: Lymphokine-activated killer T-cell-originated protein kinase (Homo sapiens, UniProt Q96KB5); assay type: functional;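 further: value comes from a kinase panel screen in which TOPK was one of the panel members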
[27] = target: Serine/threonine-protein kinase PLK4 (Homo sapiens, UniProt O00444); assay type: functional;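 further: PLK4 measured as one member of a kinome-wide kinase profiling panel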
[28] = target: Calcium/calmodulin-dependent protein kinase type II subunit delta (Homo sapiens, UniProt Q13557); assay type: functional
[29] = target: Dual specificity tyrosine-phosphorylation-regulated kinase 4 (Homo sapiens, UniProt Q9NR20); assay type: functional

Tyrosine-protein kinase Fyn, sequence (P06241 whole entry): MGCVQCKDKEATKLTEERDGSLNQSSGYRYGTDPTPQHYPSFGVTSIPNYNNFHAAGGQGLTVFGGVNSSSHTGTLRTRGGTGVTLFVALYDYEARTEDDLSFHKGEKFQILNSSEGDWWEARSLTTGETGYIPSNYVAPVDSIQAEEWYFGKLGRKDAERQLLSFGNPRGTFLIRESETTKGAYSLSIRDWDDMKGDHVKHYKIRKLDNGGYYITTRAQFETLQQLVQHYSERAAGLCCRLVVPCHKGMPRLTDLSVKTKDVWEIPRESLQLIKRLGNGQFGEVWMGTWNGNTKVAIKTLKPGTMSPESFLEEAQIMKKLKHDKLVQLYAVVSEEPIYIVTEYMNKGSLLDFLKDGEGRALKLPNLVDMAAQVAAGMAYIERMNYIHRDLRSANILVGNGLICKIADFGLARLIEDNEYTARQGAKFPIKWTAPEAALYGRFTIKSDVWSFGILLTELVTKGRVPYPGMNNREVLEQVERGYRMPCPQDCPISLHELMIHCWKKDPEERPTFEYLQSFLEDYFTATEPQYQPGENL
STE20-like serine/threonine-protein kinase, sequence (Q9H2G2 whole entry): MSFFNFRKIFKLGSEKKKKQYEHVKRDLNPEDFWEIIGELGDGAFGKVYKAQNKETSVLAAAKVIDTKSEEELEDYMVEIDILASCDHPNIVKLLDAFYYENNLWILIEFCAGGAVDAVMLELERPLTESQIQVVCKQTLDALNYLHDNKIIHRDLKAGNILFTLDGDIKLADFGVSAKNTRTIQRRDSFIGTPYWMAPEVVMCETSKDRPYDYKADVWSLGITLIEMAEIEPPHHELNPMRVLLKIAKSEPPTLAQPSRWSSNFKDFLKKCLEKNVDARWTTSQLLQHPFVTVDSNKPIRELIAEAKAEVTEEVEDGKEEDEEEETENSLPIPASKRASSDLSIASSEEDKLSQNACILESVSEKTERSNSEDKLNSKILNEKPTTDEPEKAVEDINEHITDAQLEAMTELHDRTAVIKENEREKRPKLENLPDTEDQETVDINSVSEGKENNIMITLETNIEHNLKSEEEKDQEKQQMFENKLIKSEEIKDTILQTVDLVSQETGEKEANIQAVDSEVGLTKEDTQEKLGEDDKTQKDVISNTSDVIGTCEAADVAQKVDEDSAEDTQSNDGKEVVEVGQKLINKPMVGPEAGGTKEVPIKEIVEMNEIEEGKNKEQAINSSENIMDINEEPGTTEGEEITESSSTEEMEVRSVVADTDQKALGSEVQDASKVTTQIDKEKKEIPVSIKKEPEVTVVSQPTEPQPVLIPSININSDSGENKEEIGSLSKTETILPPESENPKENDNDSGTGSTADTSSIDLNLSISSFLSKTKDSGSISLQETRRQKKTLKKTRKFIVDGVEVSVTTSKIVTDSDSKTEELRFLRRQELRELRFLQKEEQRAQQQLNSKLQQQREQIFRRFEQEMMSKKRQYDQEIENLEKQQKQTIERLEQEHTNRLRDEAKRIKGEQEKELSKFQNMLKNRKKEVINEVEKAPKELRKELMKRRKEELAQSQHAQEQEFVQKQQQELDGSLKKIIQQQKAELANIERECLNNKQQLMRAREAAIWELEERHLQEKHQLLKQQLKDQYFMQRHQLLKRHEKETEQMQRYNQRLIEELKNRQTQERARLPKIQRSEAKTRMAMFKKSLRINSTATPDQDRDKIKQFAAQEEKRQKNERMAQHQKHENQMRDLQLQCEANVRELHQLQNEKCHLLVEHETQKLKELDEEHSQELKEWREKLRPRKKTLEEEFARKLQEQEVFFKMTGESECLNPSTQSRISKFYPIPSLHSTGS
Glutathione-S-transferase, sequence (Q26513 whole entry): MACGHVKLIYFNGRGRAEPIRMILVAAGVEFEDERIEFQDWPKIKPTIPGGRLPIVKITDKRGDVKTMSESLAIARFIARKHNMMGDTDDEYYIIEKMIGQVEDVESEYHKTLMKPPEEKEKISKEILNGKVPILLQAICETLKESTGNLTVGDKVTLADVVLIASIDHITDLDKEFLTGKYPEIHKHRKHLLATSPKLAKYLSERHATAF
Ribosomal protein S6 kinase beta-1, sequence (P23443 whole entry): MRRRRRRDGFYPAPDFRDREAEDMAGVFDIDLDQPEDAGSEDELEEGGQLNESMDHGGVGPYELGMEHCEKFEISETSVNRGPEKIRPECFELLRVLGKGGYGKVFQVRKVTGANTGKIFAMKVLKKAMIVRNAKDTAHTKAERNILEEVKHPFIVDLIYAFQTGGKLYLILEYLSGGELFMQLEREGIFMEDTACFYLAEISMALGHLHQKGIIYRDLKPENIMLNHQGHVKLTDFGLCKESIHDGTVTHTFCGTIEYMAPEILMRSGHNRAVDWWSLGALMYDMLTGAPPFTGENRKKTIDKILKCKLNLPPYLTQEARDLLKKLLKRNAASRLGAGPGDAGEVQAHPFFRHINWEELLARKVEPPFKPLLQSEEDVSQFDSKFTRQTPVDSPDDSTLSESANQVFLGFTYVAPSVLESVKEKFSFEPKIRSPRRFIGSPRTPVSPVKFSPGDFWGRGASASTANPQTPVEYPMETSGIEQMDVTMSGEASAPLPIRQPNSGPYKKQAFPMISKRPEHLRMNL
MAP kinase-activated protein kinase 3, sequence (Q16644 whole entry): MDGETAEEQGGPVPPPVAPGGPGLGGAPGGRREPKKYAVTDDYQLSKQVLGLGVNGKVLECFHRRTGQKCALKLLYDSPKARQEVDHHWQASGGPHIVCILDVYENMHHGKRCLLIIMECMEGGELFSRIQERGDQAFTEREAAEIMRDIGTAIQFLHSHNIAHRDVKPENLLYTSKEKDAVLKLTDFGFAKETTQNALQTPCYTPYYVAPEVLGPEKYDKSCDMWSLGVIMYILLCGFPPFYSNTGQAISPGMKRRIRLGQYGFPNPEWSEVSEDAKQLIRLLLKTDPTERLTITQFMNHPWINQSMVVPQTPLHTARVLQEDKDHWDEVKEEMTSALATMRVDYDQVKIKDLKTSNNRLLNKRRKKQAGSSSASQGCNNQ
Beta-arrestin-1, sequence (P49407 whole entry): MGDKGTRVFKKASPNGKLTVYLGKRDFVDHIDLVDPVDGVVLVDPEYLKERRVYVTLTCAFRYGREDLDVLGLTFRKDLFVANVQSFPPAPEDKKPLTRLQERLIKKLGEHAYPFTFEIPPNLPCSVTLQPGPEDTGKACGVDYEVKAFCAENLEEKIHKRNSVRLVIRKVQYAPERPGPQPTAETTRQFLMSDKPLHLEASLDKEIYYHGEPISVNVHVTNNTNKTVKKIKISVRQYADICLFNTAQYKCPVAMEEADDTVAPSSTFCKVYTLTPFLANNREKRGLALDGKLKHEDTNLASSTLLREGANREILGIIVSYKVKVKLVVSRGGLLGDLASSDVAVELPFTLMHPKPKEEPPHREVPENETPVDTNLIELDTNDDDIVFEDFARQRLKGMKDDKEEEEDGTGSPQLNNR
Serine/threonine-protein kinase PAK 4, sequence (O96013 whole entry): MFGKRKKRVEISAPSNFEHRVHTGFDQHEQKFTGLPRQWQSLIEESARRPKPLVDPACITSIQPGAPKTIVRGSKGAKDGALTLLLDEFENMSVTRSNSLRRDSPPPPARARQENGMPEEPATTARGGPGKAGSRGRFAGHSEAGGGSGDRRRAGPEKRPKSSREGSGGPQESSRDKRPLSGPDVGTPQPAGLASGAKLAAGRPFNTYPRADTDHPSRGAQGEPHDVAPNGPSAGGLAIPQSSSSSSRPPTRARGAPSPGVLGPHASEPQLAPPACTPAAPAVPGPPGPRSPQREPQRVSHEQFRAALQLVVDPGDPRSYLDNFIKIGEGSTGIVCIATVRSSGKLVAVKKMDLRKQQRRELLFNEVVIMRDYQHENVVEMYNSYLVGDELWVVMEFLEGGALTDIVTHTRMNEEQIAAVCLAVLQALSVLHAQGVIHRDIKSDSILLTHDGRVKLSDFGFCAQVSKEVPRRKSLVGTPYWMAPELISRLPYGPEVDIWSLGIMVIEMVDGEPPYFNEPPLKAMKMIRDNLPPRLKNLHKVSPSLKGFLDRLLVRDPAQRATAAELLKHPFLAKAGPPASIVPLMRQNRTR
Serine/threonine-protein kinase PLK1, sequence (P53350 whole entry): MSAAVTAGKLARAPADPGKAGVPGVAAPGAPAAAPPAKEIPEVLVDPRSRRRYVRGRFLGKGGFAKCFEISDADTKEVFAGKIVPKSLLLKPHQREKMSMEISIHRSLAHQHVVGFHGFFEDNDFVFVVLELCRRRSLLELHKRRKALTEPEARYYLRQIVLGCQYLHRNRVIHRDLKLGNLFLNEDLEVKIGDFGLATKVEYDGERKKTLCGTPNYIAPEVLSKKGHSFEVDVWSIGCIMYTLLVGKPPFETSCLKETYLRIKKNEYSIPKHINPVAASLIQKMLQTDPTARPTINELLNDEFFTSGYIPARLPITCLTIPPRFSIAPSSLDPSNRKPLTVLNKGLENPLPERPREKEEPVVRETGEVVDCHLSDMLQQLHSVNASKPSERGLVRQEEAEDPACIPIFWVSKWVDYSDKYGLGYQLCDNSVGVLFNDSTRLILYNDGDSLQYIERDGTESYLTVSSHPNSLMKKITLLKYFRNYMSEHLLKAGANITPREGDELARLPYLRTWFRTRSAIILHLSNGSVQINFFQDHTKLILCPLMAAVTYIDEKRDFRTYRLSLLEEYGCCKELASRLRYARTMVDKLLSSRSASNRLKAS
MAP kinase-activated protein kinase 5, sequence (Q8IW41 whole entry): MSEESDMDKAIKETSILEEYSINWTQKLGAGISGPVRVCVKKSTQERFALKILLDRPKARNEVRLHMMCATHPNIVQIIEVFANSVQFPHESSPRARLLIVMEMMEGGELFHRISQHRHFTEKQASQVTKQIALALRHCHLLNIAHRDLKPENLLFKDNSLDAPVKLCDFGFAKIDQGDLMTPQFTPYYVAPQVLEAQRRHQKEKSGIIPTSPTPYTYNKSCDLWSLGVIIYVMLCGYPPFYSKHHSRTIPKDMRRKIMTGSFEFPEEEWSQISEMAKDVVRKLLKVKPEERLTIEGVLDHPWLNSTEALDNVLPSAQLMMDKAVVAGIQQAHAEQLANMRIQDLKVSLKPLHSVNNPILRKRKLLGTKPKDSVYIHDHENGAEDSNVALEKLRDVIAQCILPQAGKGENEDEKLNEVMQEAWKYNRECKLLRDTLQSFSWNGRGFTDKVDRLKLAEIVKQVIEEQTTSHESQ

Compound: Cc1cnc(NC(=O)c2sc3ccccc3c2Cl)s1
AC50 [1]: 25.4 µM (active)
AC50 [2]: 3.25 µM (active)
IC50 [3]: > 67.5 µM (inactive)

Compound: Cc1ccc(Nc2cc(C)nn2-c2nc(C)cc(O)n2)cc1
EC50 (BJ): 14 µM (active)

Compound: CN(C)c1ncc(C2=C(Cl)C(=O)C(N3CCCC3)=C(Cl)C2=O)s1
IC50 [4]: > 100 µM (active)
IC50 (Estrogen receptor beta): 20.6 µM (not active)
IC50 (Beta-arrestin-1): 10.7 µM (active)
IC50 [5]: > 66.6 µM (inactive)

Compound: O=C1C(O)=C/C(=N\c2ccccc2O)c2ccccc21
IC50 (HEK293 [6]): > 20 µM (inactive)
IC50 (HEK293 [7]): > 20 µM (inactive)

Ki [8]: > 10 µM (inactive)
Ki [9]: > 10 µM (inactive)
Ki [10]: 6.31 µM (active)
Ki [11]: 0.631 µM (active)
Ki [12]: > 5.01 µM (inactive)
Ki [13]: 0.794 µM (active)
Ki [14]: 0.501 µM (active)
Ki [15]: > 2 µM (inactive)
Ki [16]: 1.26 µM (active)
Ki [17]: > 2.51 µM (inactive)
Ki [18]: > 7.94 µM (inactive)
Ki [19]: > 7.94 µM (inactive)
Ki [20]: > 1.58 µM (inactive)
Ki [21]: > 3.16 µM (inactive)
Ki [22]: > 0.794 µM (inactive)
Ki [23]: > 5.01 µM (inactive)
Ki [24]: 6.31 µM (active)
Ki [25]: > 5.01 µM (inactive)
Ki [27]: 1.26 µM (active)
Ki [28]: 1.26 µM (active)
Ki [29]: > 7.94 µM (inactive)
Compound: O=C1NC(=S)SC1=C1C(=O)Nc2ccc(Br)cc21
Ki [26]: 7.94 µM (active)
